# No end group written: not given here.
# Target: MHC class I allele A*0201 (A2) (Homo sapiens, UniProt P04439, D140Y/D185E/D98H/E176V/E277Q/G131W/G231S/I119V/I121R/I166T/I218V/L300P/L318F/N151K/N90K/P208A/P217A/Q86G/Q94H/R138H/R169H/T345S)
# Assay: iScore multi-parametric analysis, A*0201
# Format: binding
# Details: level of binding: >0.5, 0.25-0.5, <0.25
# Experimental: (§1) Finally, multiparametric analysis is performed on the results from these assays and an iScore is generated. The iScore represents a measure of the overall quality of peptide-MHC binding, enabling candidate peptides to be ranked in order of binding quality and allowing rational prioritisation of peptides for functional cellular follow-up studies.
# (§2) As part of the validation of the iTopia system, a panel of overlapping peptides derived from the CMV pp 65 protein were used and their binding properties for the A*0201 allele analysed. A number of T cell epitopes restricted by HLA A*0201 had already been identified (by more conventional methodologies) by other researchers for this protein. In the iTopia study, it was reported that an iScore of: >0.5 represented “good quality binding”; between 0.25 and 0.5 represented “medium quality binding”; and <0.25 represented “poor quality binding”. Six of the 20 peptides which gave a “good” iScore (>0.5) for A*0201, represented previously characterised CMV pp 65 A*0201 epitopes.
# (§3) Each MHC class I allele has different binding properties and affinities for peptides which they bind. Therefore, information obtained with HLA A*0201 in which peptides are ranked as good, medium or poor binders using >0.5, 0.25-0.5 and <0.25 as thresholds is not necessarily transferable between alleles. Also, different proteins are likely to have distinct immunogenic profiles and the affinities between peptides and MHC class I molecules will be different between proteins. This may be particularly relevant in the case of self-antigens where immunogenicity is likely to be lower than in foreign proteins.
# (§4) Multi-parametric analysis permits the integration of half-life and ED50 parameters in an integrated iScore. This reflects the capability of a peptide to reconstitute with MHC molecules in a stable complex, defining its overall level of binding i.e. the iScore value represents the overall quality of peptide-MHC binding and is used to rank candidate peptides as an indicator of functional relevance. The lead candidate epitopes for each allele are selected for cellular functional analysis to confirm their biological relevance.
# (§5) The changes in gradient of the graphs in FIGS. 7 to 10 are indicated by a line which delineates the populations of iScores forming the basis of discrimination for further functional studies.
row,Sequence,"iScore, MHC Class I Molecule A*0201"
1,LSHNPLADL [Peptide 75],0.095
2,LSNNSLVSL [Peptide 121],0.116
3,LSPFAFSGS [Peptide 79],0.064
4,LTHLESLHL [Peptide 129],0.143
5,LTNLSSNSD [Peptide 206],0.027
6,LVELILNHI [Peptide 88],0.109
7,LVLLGWVSS [Peptide 12],0.122
8,LYLPRDVLA [Peptide 112],0.218
9,MHNIRDACR [Peptide 193],0.093
10,MVTWLKETE [Peptide 153],0.051
11,NQLAVLPAG [Peptide 51],0.22
12,NRKGIKKWM [Peptide 189],0.138
13,NRVLLELNS [Peptide 166],0.031
14,"PLPDQCPAL [Peptide 29, PLPDQCPAL]",0.088
15,"PPLAELAAL [Peptide 58, PPLAELAAL]",0.075
16,PPSLQTSYV [Peptide 175],0.145
17,QNRSFEGMV [Peptide 96],0.052
18,QTSYVFLGI [Peptide 177],0.127
19,RALQGLRRL [Peptide 104],0.168
20,RDACRDHME [Peptide 195],0.08

# Target: MHC class I allele A*0301 (A3) (Homo sapiens, UniProt P04439)
# Assay: iScore multi-parametric analysis, A*0301
# Format: binding
# Details: level of binding: >0.5, 0.25-0.5, <0.25
# Experimental: as §1, §2, §3, §4, §5
row,Sequence,"iScore, MHC Class I Molecule A*0301"
1,LSHNPLADL [Peptide 75],0
2,LSNNSLVSL [Peptide 121],0
3,LSPFAFSGS [Peptide 79],0
4,LTHLESLHL [Peptide 129],0
5,LTNLSSNSD [Peptide 206],0
6,LVELILNHI [Peptide 88],0
7,LVLLGWVSS [Peptide 12],0
8,LYLPRDVLA [Peptide 112],0
9,MHNIRDACR [Peptide 193],0
10,MVTWLKETE [Peptide 153],0
11,NQLAVLPAG [Peptide 51],0
12,NRKGIKKWM [Peptide 189],0
13,NRVLLELNS [Peptide 166],0
14,"PLPDQCPAL [Peptide 29, PLPDQCPAL]",0
15,"PPLAELAAL [Peptide 58, PPLAELAAL]",0
16,PPSLQTSYV [Peptide 175],0
17,QNRSFEGMV [Peptide 96],0
18,QTSYVFLGI [Peptide 177],0
19,RALQGLRRL [Peptide 104],0.027
20,RDACRDHME [Peptide 195],0

# Target: MHC class I allele A*0101 (A1) (Homo sapiens, UniProt P04439, A114D/A174V/A182V/D101N/D185E/E176A/E190D/L180R/Q94H/R68K/S129P/T187R/V100A/V91M/W191G)
# Assay: iScore multi-parametric analysis, A*0101
# Format: binding
# Details: level of binding: >0.5, 0.25-0.5, <0.25
# Experimental: as §1, §2, §3, §4, §5
row,Sequence,"iScore, MHC Class I Molecule A*0101"
1,LSHNPLADL [Peptide 75],0
2,LSNNSLVSL [Peptide 121],0
3,LSPFAFSGS [Peptide 79],0
4,LTHLESLHL [Peptide 129],0
5,LTNLSSNSD [Peptide 206],0
6,LVELILNHI [Peptide 88],0
7,LVLLGWVSS [Peptide 12],0
8,LYLPRDVLA [Peptide 112],0
9,MHNIRDACR [Peptide 193],0
10,MVTWLKETE [Peptide 153],0
11,NQLAVLPAG [Peptide 51],0
12,NRKGIKKWM [Peptide 189],0
13,NRVLLELNS [Peptide 166],0
14,"PLPDQCPAL [Peptide 29, PLPDQCPAL]",0
15,"PPLAELAAL [Peptide 58, PPLAELAAL]",0
16,PPSLQTSYV [Peptide 175],0
17,QNRSFEGMV [Peptide 96],0
18,QTSYVFLGI [Peptide 177],0.027
19,RALQGLRRL [Peptide 104],0
20,RDACRDHME [Peptide 195],0

# Target: MHC class I allele B*0702 (B7) (Homo sapiens, UniProt P01889)
# Assay: iScore multi-parametric analysis, B*0702
# Details: level of binding: >0.5, 0.25-0.5, <0.25
# Experimental: as §1
# As part of the validation of the iTopia system, a panel of overlapping peptides derived from the CMV pp 65 protein were used and their binding properties for the A*0201 allele analysed. A number of T cell epitopes restricted by HLA A*0201 had already been identified (by more conventional methodologies) by other researchers for this protein. In the iTopia study, it was reported that an iScore of: >0.5 represented “good quality binding”; between 0.25 and 0.5 represented “medium quality binding”; and <0.25 represented “poor quality binding”.
# as §4
row,Sequence,"iScore, MHC Class I Molecule B*0702"
1,LSHNPLADL [Peptide 75],0
2,LSNNSLVSL [Peptide 121],0.112
3,LSPFAFSGS [Peptide 79],0
4,LTHLESLHL [Peptide 129],0
5,LTNLSSNSD [Peptide 206],0
6,LVELILNHI [Peptide 88],0
7,LVLLGWVSS [Peptide 12],0
8,LYLPRDVLA [Peptide 112],0
9,MHNIRDACR [Peptide 193],0
10,MVTWLKETE [Peptide 153],0
11,NQLAVLPAG [Peptide 51],0
12,NRKGIKKWM [Peptide 189],0
13,NRVLLELNS [Peptide 166],0
14,"PLPDQCPAL [Peptide 29, PLPDQCPAL]",0
15,"PPLAELAAL [Peptide 58, PPLAELAAL]",0.145
16,PPSLQTSYV [Peptide 175],0
17,QNRSFEGMV [Peptide 96],0
18,QTSYVFLGI [Peptide 177],0
19,RALQGLRRL [Peptide 104],0.078
20,RDACRDHME [Peptide 195],0
